Measurements published in article PMC6533912 (Journal of medicinal chemistry, 2018).
Values belong to the molecule of their own block, whether it stands above or below them.

Key:
[1] = target: T1, human 5-HT2CR (unedited INI isoform) (Homo sapiens, UniProt P28335); test: 5-HT-induced Cai2+ release assay in live h5-HT2CR-CHO cells; format: cell-based; conditions: for allosteric modulator (PAM/NAM) activity on 5-HT-induced Cai2+ release, in words: 1 nM test compound
T1 sequence (P28335 33-458): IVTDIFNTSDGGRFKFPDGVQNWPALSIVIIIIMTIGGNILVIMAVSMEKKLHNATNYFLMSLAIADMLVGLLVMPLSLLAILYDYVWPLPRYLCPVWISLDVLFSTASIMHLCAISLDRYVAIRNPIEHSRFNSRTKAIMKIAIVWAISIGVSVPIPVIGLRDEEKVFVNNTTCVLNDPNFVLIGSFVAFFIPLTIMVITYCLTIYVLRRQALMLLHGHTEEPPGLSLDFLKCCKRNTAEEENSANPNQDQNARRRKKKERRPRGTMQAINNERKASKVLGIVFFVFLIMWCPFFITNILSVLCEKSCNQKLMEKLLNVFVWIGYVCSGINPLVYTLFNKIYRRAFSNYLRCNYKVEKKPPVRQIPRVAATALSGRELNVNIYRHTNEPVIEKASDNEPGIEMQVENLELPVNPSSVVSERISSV

human 5-HT2AR [2] = target: T2, human 5-HT2AR (Homo sapiens, UniProt P28223); conditions: cited from earlier work
T2 sequence (P28223 whole entry, canonical isoform): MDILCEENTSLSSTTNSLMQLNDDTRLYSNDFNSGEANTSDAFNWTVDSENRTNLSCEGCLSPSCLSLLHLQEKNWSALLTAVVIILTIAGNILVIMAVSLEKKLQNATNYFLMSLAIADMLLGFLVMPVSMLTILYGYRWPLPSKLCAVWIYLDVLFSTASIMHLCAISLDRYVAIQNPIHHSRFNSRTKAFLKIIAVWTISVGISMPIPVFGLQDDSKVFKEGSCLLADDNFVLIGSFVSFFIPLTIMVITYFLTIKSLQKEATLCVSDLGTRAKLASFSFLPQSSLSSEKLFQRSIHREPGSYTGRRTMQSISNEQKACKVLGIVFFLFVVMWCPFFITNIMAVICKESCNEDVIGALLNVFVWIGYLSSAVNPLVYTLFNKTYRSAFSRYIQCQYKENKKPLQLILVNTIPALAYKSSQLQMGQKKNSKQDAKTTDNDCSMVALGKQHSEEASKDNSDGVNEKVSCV

[3] = target: T1, human 5-HT2CR (unedited INI isoform); conditions: cited from earlier work
male Sprague–Dawley rats [4] = test: WAY163909 vs saline drug discrimination assay; format: in vivo
[5] = target: norepinephrine transporter (NET) (Homo sapiens, UniProt P23975); test: NIMH PDSP radioligand displacement; conditions: 10 μM
Chain of norepinephrine transporter (NET) (P23975 whole entry, species assumed): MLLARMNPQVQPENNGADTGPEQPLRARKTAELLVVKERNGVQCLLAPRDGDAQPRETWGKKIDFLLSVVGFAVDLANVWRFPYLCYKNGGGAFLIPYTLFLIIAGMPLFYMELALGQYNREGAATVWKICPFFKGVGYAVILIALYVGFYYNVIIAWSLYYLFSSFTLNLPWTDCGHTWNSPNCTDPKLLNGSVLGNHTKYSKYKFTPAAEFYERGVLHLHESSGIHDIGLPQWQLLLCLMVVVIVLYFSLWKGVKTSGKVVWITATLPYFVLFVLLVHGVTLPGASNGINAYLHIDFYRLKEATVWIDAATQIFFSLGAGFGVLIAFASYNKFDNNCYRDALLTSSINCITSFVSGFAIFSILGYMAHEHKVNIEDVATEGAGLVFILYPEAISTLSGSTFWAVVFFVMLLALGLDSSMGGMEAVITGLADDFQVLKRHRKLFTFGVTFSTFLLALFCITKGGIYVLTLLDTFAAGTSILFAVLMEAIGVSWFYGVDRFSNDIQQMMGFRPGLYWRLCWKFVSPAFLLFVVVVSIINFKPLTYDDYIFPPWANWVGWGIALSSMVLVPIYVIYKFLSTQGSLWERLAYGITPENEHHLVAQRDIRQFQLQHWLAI

human 5-HT2AR [6] = target: T2, human 5-HT2AR; test: 5-HT-evoked Cai2+ release assay in live h5-HT2AR-CHO cells; format: cell-based; conditions: 1 pM, 1 nM, 1 μM
male Sprague–Dawley rats [7] = test: Cocaine self-administration cue reactivity test; format: in vivo; conditions: 1 mg/kg ip, rat
5-HT1BR = 5-HT1BR (Homo sapiens, UniProt P28222); test: NIMH PDSP radioligand displacement; conditions: read-out: % inhib (10 μm)
Chain of 5-HT1BR (P28222 whole entry): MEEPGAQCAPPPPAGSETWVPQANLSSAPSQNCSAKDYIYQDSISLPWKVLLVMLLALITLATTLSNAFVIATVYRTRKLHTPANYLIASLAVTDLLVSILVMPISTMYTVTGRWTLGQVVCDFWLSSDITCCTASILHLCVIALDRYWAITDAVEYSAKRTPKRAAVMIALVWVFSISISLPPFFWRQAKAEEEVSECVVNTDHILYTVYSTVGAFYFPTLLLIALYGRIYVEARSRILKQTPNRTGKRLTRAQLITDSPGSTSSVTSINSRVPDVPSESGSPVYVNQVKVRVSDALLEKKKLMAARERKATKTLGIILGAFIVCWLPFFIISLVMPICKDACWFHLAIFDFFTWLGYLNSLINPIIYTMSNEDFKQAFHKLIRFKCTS

male Sprague–Dawley rats [8] = test: Spontaneous locomotor activity; format: in vivo; conditions: rat
dopamine receptor D4 = target: T3, dopamine receptor D4 (Homo sapiens, UniProt P21917); test: NIMH PDSP radioligand displacement; conditions: read-out: % inhib (10 μm)
T3 sequence (P21917 1-419): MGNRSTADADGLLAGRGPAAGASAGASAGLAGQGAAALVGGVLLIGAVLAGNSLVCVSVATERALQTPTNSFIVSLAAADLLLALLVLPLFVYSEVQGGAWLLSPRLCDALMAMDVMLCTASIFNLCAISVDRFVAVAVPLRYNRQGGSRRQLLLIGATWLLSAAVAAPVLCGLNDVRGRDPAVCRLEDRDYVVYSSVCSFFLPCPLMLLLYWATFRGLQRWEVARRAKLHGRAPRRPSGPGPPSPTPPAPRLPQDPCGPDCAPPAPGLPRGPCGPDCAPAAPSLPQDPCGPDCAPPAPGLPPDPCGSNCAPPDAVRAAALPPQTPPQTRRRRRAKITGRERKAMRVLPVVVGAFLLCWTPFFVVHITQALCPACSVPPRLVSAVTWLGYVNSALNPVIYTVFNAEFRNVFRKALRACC

Structure (SMILES): CCCCCCCCCCC[C@@H]1CCN[C@H](C(=O)NC[C@@H](O)CO)C1 (mixture of isomers) [Compound 16a, cis-N-((R)-2,3-Dihydroxypropyl)-4-undecylpiperidine-2-carboxamide]
allosteric modulator (PAM/NAM) activity on 5-HT-induced Cai2+ release, in words [1]: lacked appreciable PAM activity

allosteric modulator (PAM/NAM) activity on 5-HT-induced Cai2+ release, in words [1]: no significant PAM activity
Structure (SMILES): CCCCCCCCCCC[C@@H]1CCN[C@H](C(=O)NCCO)C1 (relative stereo) [Compound 8, cis-N-(2-Hydroxyethyl)-4-undecylpiperidine-2-carboxamide]

Structure (SMILES): CCCCCCCCCCC[C@@H]1CCN[C@H](C(=O)N[C@@H]([C@H]2O[C@H](SC)[C@H](O)[C@@H](O)[C@H]2O)[C@H](C)Cl)C1.Cl [Compound 1]
intrinsic agonist activity at the 5-HT2AR (human 5-HT2AR [2]): no intrinsic agonist activity
shift of the 5-HT-evoked Cai2+ response curve ([3]; 1 nM, previous titration studies): leftward shift of the 5-HT-evoked Cai^2+ response curve
intrinsic agonist activity at the 5-HT2CR [3]: no intrinsic agonist activity

Structure (SMILES): c1cc2c3c(c1)[C@H]1CCC[C@H]1N3CCNC2 [WAY163909, (7b-R,10a-R)-1,2,3,4,8,9,10,10a-octahydro-7bH-cyclopenta[b][1,4]diazepino[6,7,1hi]indole]
WAY163909-appropriate responding (male Sprague–Dawley rats [4]; 0.5 mg/kg ip, given alone): ~30%
dose predicted to elicit 50% of WAY163909-lever responding (ED50) (male Sprague–Dawley rats [4]; ip, rats trained on WAY163909 0.75 mg/kg vs saline, log-probit): 0.53 mg/kg
WAY163909-appropriate responding (male Sprague–Dawley rats [4]; training dose 0.75 mg/kg ip): Greater than 95%

allosteric modulator (PAM/NAM) activity on 5-HT-induced Cai2+ release, in words [1]: no significant PAM activity
Structure (SMILES): CCCCCCCCCCC[C@@H]1CCN[C@H](C(=O)O)C1 [Compound 7, (cis-2,4)-4-Undecylpiperidine-2-carboxylic acid]

Structure (SMILES): CCCCCCCCCCC[C@@H]1CCN[C@H](C(=O)NC[C@H](O)CO)C1 (mixture of isomers) [Compound 16b, cis-N-((S)-2,3-Dihydroxypropyl)-4-undecylpiperidine-2-carboxamide]
allosteric modulator (PAM/NAM) activity on 5-HT-induced Cai2+ release, in words [1]: displayed significant PAM activity

Structure (SMILES): CCCCCCCCCCC[C@@H]1CCN[C@H](C(=O)NCC(O)CO)C1 (relative stereo) [Compound 16, cis-4-Undecylpiperidine-2-carboxylic Acid (2,3-Dihydroxypropyl)amide]
substitution for the WAY163909 stimulus, in words (male Sprague–Dawley rats [4]; 0.125–1.0 mg/kg ip, given alone): partially substituted for WAY163909
displacement of radioligand binding [5]: did not displace binding
change in 5-HT Emax or EC50 at the 5-HT2AR (human 5-HT2AR [6]): no change in the 5-HT Emax or EC50
previously active lever presses reinforced by the discrete cue complex vs saline (male Sprague–Dawley rats [7]; 15 min before cue reactivity session): significantly lower
inactive lever presses vs saline (male Sprague–Dawley rats [7]): did not significantly alter inactive lever presses
inhibition at 10 µM (5-HT1BR): -18.1%
ambulations (male Sprague–Dawley rats [8]; 1 mg/kg ip): not associated with suppressed ambulations
mean total ambulations in 30 min vs saline (male Sprague–Dawley rats [8]; 5 mg/kg ip): significantly reduced mean total ambulations
mean total vertical activity in 30 min vs saline (male Sprague–Dawley rats [8]; 5 mg/kg ip): significantly reduced mean total vertical activity
inhibition at 10 µM (dopamine receptor D4): -14.2%
effect on 5-HT potency (leftward shift of 5-HT curve) ([1]; 1 pM, 1 nM, 1 μM): did not impact 5-HT potency
shift of 5-HT-evoked Cai2+ release concentration-response curve ([1]; 1 pM, 1 nM, 1 μM): upward shift of 5-HT-evoked Cai^2+ release at multiple concentrations
allosteric modulator (PAM/NAM) activity on 5-HT-induced Cai2+ release, in words [1]: significant PAM activity
intrinsic agonist efficacy to induce Cai2+ release in the absence of 5-HT ([1]; 1 nM, compound alone): did not stimulate Cai^2+ release
